This note sets out measurements from patent US12110282B2, “Thiobenzopyrans and their use in preparation of drugs for treatment of rheumatoid arthritis” (HC SYNTHETIC PHARMACEUTICAL CO., LTD., priority 2020, dated 2024).

Structures can show the parent of a compound that is named as a salt.

Data set [1] concerns adjuvant arthritis (AA) of rats. Description: anti-arthritic activity in the animal model of adjuvant arthritis (AA) of rats, foot swelling by drainage method. It counts as in vivo. More on the design: key to The average swelling degree before administration (X ± s) / Average swelling degree after administration (X ± s): (toe volume after − before inflammation)/volume before; fraction. Particulars: rat adjuvant arthritis; for The average swelling degree before administration (X ± s): foot swelling degree before administration (baseline); for The average swelling degree before administration (X ± s) / Average swelling degree after administration (X ± s): n=10; for Average swelling degree after administration (X ± s): gavage 50 μg/dose/day for consecutive 5 days. Here is the method:
The study on the anti-arthritic activity of the compounds of the present disclosure was conducted based on the animal model of adjuvant arthritis (AA) of rats and on the establishment of adjuvant arthritis of rats. The rats were divided into 14 groups, with 10 rats in each group, and the rats were administered by gavage the compound of the present disclosure, a blank control, and a positive control substance of Iguratimod at a dose of 50 μg/dose/day for consecutive 5 days. A drainage method was used to determine the degree of foot swelling in rats of each group before and after administration, and the degree of foot swelling in rats before and after administration was calculated to determine whether the drug was effective.
Foot swelling degree X=(volume of the toe after inflammation−volume of toe before inflammation)/volume of the toe before inflammation×100%.

Another data set has as its system healthy rats. Description: content of aminotransferase in the serum of healthy rats after oral administration for 15 days. To be noted: for ALT / AST: serum of healthy rats, oral administration for 15 days, n=10. Format: in vivo. Here is the method: Elevated aminotransferase is a common side effect of Iguratimod. To investigate whether the compounds of the present disclosure have effects on aminotransferase, healthy rats were administered orally the compound of the present disclosure and Iguratimod for 15 days, respectively, and then the content of aminotransferase in the serum of rats was determined.

For `CS(=O)(=O)Nc1cc2scc(NC=O)c(=O)c2cc1Oc1ccccc1` [Compound 1 potassium salt], in data set [1], the “The average swelling degree before administration (X ± s)” value was determined as 0.455 ± 0.0279 and the “Average swelling degree after administration (X ± s)” value was 0.020 ± 0.0323. In the data set on healthy rats, this compound had an ALT of 126 ± 10.05 U/L and an AST of 78 ± 8.74 U/L.
Take `CS(=O)(=O)Nc1cc2scc(NC=O)c(=O)c2cc1Oc1ccccc1` [Compound 1 sodium salt]: in data set [1], the “The average swelling degree before administration (X ± s)” value was 0.450 ± 0.0284 and the “Average swelling degree after administration (X ± s)” value was 0.023 ± 0.0306. For the same compound, in the data set with healthy rats, the ALT amounted to 129 ± 10.18 U/L and the AST stood at 76 ± 9.22 U/L.
Turning to `CS(=O)(=O)Nc1cc2scc(NC=O)c(=O)c2cc1Oc1ccccc1` [Compound 1, 3-formamido-7-methylsulfonamido-6-phe noxy-4H-I-thiobenzopyran-4-one], in data set [1], the “The average swelling degree before administration (X ± s)” value was 0.453 ± 0.0290 and the “Average swelling degree after administration (X ± s)” value was 0.020 ± 0.0335. Besides, in the data set with healthy rats, the ALT is recorded as 125 ± 10.24 U/L and the AST was 75 ± 8.22 U/L.
Consider `CS(=O)(=O)Nc1cc2scc(NC=O)c(=O)c2cc1Sc1ccccc1` [Compound 2 potassium salt], for which, in data set [1], the “The average swelling degree before administration (X ± s)” value is 0.453 ± 0.0290 and the “Average swelling degree after administration (X ± s)” value is on record as 0.021 ± 0.0335. In the data set with healthy rats, this compound displayed an ALT of 109 ± 9.11 U/L and an AST of 77 ± 9.02 U/L.
For `CS(=O)(=O)Nc1cc2scc(NC=O)c(=O)c2cc1Sc1ccccc1` [Compound 2 sodium salt], in data set [1], the “The average swelling degree before administration (X ± s)” value is listed as 0.448 ± 0.0291 and the “Average swelling degree after administration (X ± s)” value came out at 0.020 ± 0.0325. Also, in the data set on healthy rats, the ALT came to 104 ± 9.05 U/L and the AST worked out at 76 ± 9.56 U/L.
On to `CS(=O)(=O)Nc1cc2scc(NC=O)c(=O)c2cc1Sc1ccccc1` [Compound 2, 3-formamido-7-methylsulfonamido-6-phenylthio-4H-1-thiobenzopyran-4-one], for which, in data set [1], the “The average swelling degree before administration (X ± s)” value is recorded as 0.430 ± 0.0312 and the “Average swelling degree after administration (X ± s)” value stood at 0.019 ± 0.0315. The “side effects (aminotransferase elevation) compared with Iguratimod” value in the data set with healthy rats (healthy rats, oral, conclusion in words) is reported as “further weaker side effects”. In the data set with healthy rats, this compound displayed an ALT of 108 ± 9.43 U/L and an AST of 80 ± 9.28 U/L.
In the case of `CS(=O)(=O)Nc1cc2scc(NC=O)c(=O)c2cc1[S+]([O-])c1ccccc1` (stereo not drawn) [Compound 3 potassium salt], in data set [1], the “The average swelling degree before administration (X ± s)” value is recorded as 0.454 ± 0.0277 and the “Average swelling degree after administration (X ± s)” value was 0.023 ± 0.0330. In addition, in the data set on healthy rats, the ALT turned out to be 141 ± 7.89 U/L and the AST is listed as 89 ± 8.91 U/L.
The matching figures for `CS(=O)(=O)Nc1cc2scc(NC=O)c(=O)c2cc1[S+]([O-])c1ccccc1` (stereo not drawn) [Compound 3 sodium salt]: 0.438 ± 0.0229, 0.022 ± 0.0333, 140 ± 8.83 U/L and 87 ± 9.06 U/L.
As for `CS(=O)(=O)Nc1cc2scc(NC=O)c(=O)c2cc1[S+]([O-])c1ccccc1` (stereo not drawn) [Compound 3], in data set [1], the “The average swelling degree before administration (X ± s)” value was determined as 0.449 ± 0.0305 and the “Average swelling degree after administration (X ± s)” value is 0.025 ± 0.0339. For the same compound, in the data set on healthy rats, the ALT came out at 143 ± 7.83 U/L and the AST is on record as 90 ± 8.76 U/L.
The matching figures for `CS(=O)(=O)Nc1cc2scc(NC=O)c(=O)c2cc1S(=O)(=O)c1ccccc1` [Compound 4 potassium salt]: 0.418 ± 0.0198, 0.019 ± 0.0274, 132 ± 8.79 U/L and 85 ± 6.87 U/L.
Turning to `CS(=O)(=O)Nc1cc2scc(NC=O)c(=O)c2cc1S(=O)(=O)c1ccccc1` [Compound 4 sodium salt], in data set [1], the “The average swelling degree before administration (X ± s)” value is 0.435 ± 0.0290 and the “Average swelling degree after administration (X ± s)” value amounted to 0.018 ± 0.0303. Further, in the data set on healthy rats, the ALT is 130 ± 9.15 U/L and the AST amounted to 83 ± 8.09 U/L.
Regarding `CS(=O)(=O)Nc1cc2scc(NC=O)c(=O)c2cc1S(=O)(=O)c1ccccc1` [Compound 4, N-(7-(methylsulfonamido)-4-oxo-6-(phenylsulfonyl)-4H-thiobenzopyran-3-yl)carboxamide], in data set [1] (conclusion in words), the “anti-inflammatory effect compared with Iguratimod” value is recorded as “better anti-inflammatory effect”. In data set [1], the “The average swelling degree before administration (X ± s)” value is 0.425 ± 0.0247 and the “Average swelling degree after administration (X ± s)” value was found to be 0.017 ± 0.0305. Also, in the data set with healthy rats, the ALT worked out at 133 ± 9.04 U/L and the AST turned out to be 79 ± 9.82 U/L.
In the case of `CS(=O)(=O)Nc1cc2occ(NC=O)c(=O)c2cc1Oc1ccccc1` [Iguratimod, 3-formamido-7-methylsulfonamido-6-phenoxy-4H-1-benzopyran-4-one, reference compound], in data set [1], the “The average swelling degree before administration (X ± s)” value worked out at 0.445 ± 0.0321 and the “Average swelling degree after administration (X ± s)” value is reported as 0.029 ± 0.0389. Besides, in the data set with healthy rats, the ALT worked out at 173 ± 9.86 U/L and the AST is 145 ± 10.98 U/L.
